Laboratory results as given in publication PMC12501029, “Discovery of a CNS active GSK3 degrader using orthogonally reactive linker screening” (Nature Communications, 2025).
Like-named read-outs stand apart in the source and are kept apart here.

Assay: Discrete i.v./p.o. KH1 (24) PK study and brain penetration
Assay type: in vivo, female Balb/c mice
Excerpt: Fifteen female mice of the Balb/c strain were obtained from Charles River Laboratories, UK. Animals were maintained under a 12-h light/12-h dark cycle, in Thoren mouse caging containing EC0 aspen bedding (DBM, UK), with 'Sizzlenest' and 'Rodent Rolls' nesting material (DBM). Enrichment materials included aspen chew sticks, cardboard houses, tunnels, swings, and sunflower seeds. All animals had ad libitum access to food (5LF2 Extruded Diet, IPS Ltd, UK) and tap water throughout. Temperature and relative humidity were maintained between 19 °C–24 °C and 45%–65%, respectively. All animals received a minimum of 10 days of acclimatisation prior to the start of the study.
The intravenous formulations for KH1 (24) were prepared by dissolving the compound in DMSO. This was then diluted with PEG400, followed by dropwise addition of sterile water to form a complete solution. The resulting formulations consisted of 5% DMSO, 40% PEG400, and 55% water, and contained KH1 (24) at a concentration of 0.1 mg/mL (for the PK study), or 1.0 mg/mL (for the PK/PD study), respectively.
The oral formulation for KH1 (24) was produced by vigorously mixing the compound with a sterile solution containing 0.5% hydroxypropylmethylcellulose in water, until a fine homogenous suspension was formed. The resulting formulation contained KH1 (24) at a concentration of 0.6 mg/mL. Dose formulations were prepared on the day of dosing, and animals were observed regularly after dose administration.
[…] Serial blood samples (10 µL per sample) were collected from the lateral tail vein of three intravenously-dosed mice and three orally-dosed mice at 5, 15 and 30 min, 1, 2, 4, 6, 8, and 24 h after dose administration. Blood samples were diluted into 90 µL of Milli‑Q ultrapure water. The remaining three intravenously-dosed animals were placed under terminal anaesthesia with isoflurane, 2 h after bolus administration. Blood was collected via cardiac puncture and the brains were removed. Two aliquots of 10 µL blood were each diluted into 90 µL of Milli-Q ultrapure water. All blood samples were stored at −20 °C prior to bioanalysis. The concentration of KH1 (24) in blood and brain was determined by UPLC-MS/MS.
Blood samples (10 µL) from study mice were diluted 1× with 90 µL of water immediately when the sample was taken. All calibration, quality control, blanks and double blank samples (all 100 µL volume) were mixed (vortexed) with 300 µL of LCMS grade acetonitrile to precipitate proteins.
For study samples, a volume (30 µL) was mixed (vortexed) with a volume (90 µL) of acetonitrile to precipitate proteins. After protein precipitation, all samples were centrifuged to pellet the proteins. Study samples in Micronics tubes were centrifuged using a Beckman Coutler Allegra C-12R Centrifuge for 10 min at 3750 rpm. All other samples in Eppendorf tubes were centrifuged using a Sigma SciQuip 1–14 centrifuge for 10 min (14,800 rpm/16,163 × g). Supernatant from study samples (80 µL) and calibration samples, QCs, blanks, and double blanks (200 µL) were then transferred to HPLC glass vials containing Milli-Q water (40 µL or 100 µL, respectively), ready for LCMS analysis.

[1] = female, Balb/c, mouse, whole blood, Oral, 3 mg/kg

## Cn1nc(N2CCC(=O)NC2=O)c2ccc(CN3CCN(Cc4ccc(-c5cn(-c6ccc(-c7cn8nccc(C(=O)Nc9cnccc9N9CCOCC9)c8n7)cc6)nn5)nc4)CC3)cc21 [compound 24]
IV, 0.37 mg/kg
  Half_Life: 2.3 h
  Vss_obs: 2.0 L/kg
female, Balb/c, mouse, brain (unbound), intravenous, 0.37 mg/kg, predicted from brain concentration and measured free fraction, read-out: free concentration in brain
  concentration at 2 h: 0.02 nM
female, Balb/c, mouse, brain / plasma (unbound), iv, 0.37 mg/kg i.v., 2 h, read-out: estimated Kp,uu
  Kp uu at 2 h: 0.05
female, Balb/c, mouse, brain / whole blood, intravenous, 0.37 mg/kg i.v., 2 hours, read-out: Brain:Blood Ratio
  Kp at 2 h: 0.18
female, Balb/c, mouse, brain, intravenous, 0.37 mg/kg i.v., 2 hours, read-out: Mean Brain Concentration
  concentration at 2 h: 16 nM
female, Balb/c, mouse, plasma (unbound), intravenous, 2 h, 0.37 mg/kg, using predicted free fractions, read-out: unbound total plasma concentration
  concentration at 2 h: 0.4 to 0.9 nM
female, Balb/c, mouse, whole blood, intravenous, 0.37 mg/kg i.v., 2 hours, read-out: Mean Blood Concentration
  concentration at 2 h: 88 nM
female, Balb/c, mouse, whole blood, iv, 0.37 mg/kg
  AUC(0-t): 572 ng·h/mL
female, Balb/c, mouse, whole blood, iv, 0.37 mg/kg, read-out: Cl_obs
  clearance: 10 mL/min/kg
[1]
  AUC(0-t): 82.2 ng·h/mL
  Cmax: 19 ng/mL
  Tmax: 2 h
female, Balb/c, mouse, whole blood, Oral, 3 mg/kg, read-out: F (oral bioavailability)
  bioavailability: 1.6%
For up to 4 h following i.v. dosing at 0.37 mg/kg
  total mean plasma concentration: above 65 nM
